Test results as given in patent US9326972B2, “Use of phenylmethimazoles, methimazole derivatives, and tautomeric cyclic thiones for the treatment of autoimmune/inflammatory diseases associated with toll-like receptor overexpression” (Ohio University, priority 2004, dated 2016).
“And” between values parts separate entries of the source, which are not always exact repeats. Identical values can stand only once.

How the values were obtained:
[1] = tested on: MHC gene expression; conditions: cited from earlier work
[2] = tested on: serum cytokines; assay: Serum pro-inflammatory cytokines in LPS-treated mice (ELISA); format: in vivo, mouse; conditions: LPS-treated mice of Table 5
Procedure: Quantification of pro-inflammatory cytokines in blood: The cytokines TNF-α, IL-1β, IL-6, IFN-γ and IL-12 were quantified in serum using ELISA techniques. Blood was collected from the inner canthus of the eye under anesthesia and serum saved at −20° C. until use. The ELISA kits were from R&D System and the results were expressed in pg/ml serum.

[3] = tested on: IFN-β promoter; assay: IFN-β promoter luciferase reporter in FRTL-5 thyrocytes; format: cell-based, rat
Procedure: FIG. 5. Phenylmethimazole (CIO) and Methimazole (MMI) inhibit the ability of Poly (I:C), lipopolysaccharide (LPS) and IL-1β to increase IFN-β gene expression (Top Left) and IRF-3 transactivation (Top Right) in FRTL-5 thyrocytes. (Top Left) Cells were co-transfected with IFNβ-Luc and control vector (pRLTk-Int), then treated with or without (−) Poly (I:C) (100 μg/ml), LPS (100 ng/ml), or IL-1β (10 ng/ml) in the presence of the vehicle (DMSO) alone (−), C10, or MMI for 6 hours. Data was obtained with the Dual Luciferase Assay system. (Top Right) Cells were co-transfected with Gal4 DBD/IRF-3 and Gal4-Luc then treated with nothing (−), poly (I:C), LPS, or IL-1β as in (Top Left) in the presence of DMSO or C10 for 6 hours. Data was obtained by Luciferase assay. Also shown is a graphic depiction (Bottom) of how the cis reporting system is working. Data are representative of multiple experiments.
C10, at 0.5 mM, inhibited the ability of poly (I:C) to increase IFN-β promoter activity (luciferase luminescence; P<0.01) when incubated with FRTL-5 thyrocytes transfected with pIFN-β-luc constructs (FIG. 5 Top Left, Poly (I:C) vs untreated (−)).
Plasmids for Reporter Gene Assays. Human IRF-3 was amplified from human cDNA and cloned into pCR 2.1 by the TOPO/TA (Invitrogen, Carlsbad, Calif.) cloning method, and then sequenced. […]

[4] = tested on: RAW 264.7 cells; assay: LPS-induced cytokine mRNA in RAW 264.7 macrophages (real-time PCR, Northern); conditions: RAW 264.7, LPS 1 μg/mL
[5] = tested on: horses; assay: Horses operated to remove necrotic bowel; format: in vivo, horse; conditions: 2 mg/kg C10 pre-op and post-op for three days, plus antibiotics
Procedure: Effect of Phenylmethimazole (C10) on horses subjected to operative procedures to repair necrotic bowels: A group of animals were also subjected to an operative procedure that clamped vessels in a small portion of bowel. Within 2 days, bowel necrosis and peritonitis ensued. At that point animals were re-operated to remove the necrotic bowel and treated with 2 mg/kg C10 or DMSO alone pre-op and post-op for three days. […] Both groups had the same antibiotic therapy as used above.

[6] = 1 hour, real-time PCR vs DMSO control
[7] = 3 hours, real-time PCR vs DMSO control

Q: What does the source list for `Cn1c(-c2ccccc2)cnc1S` [Compound C10, 5-Phenylmethimazole]?
A: potency in suppressing MHC gene expression relative to MMI [1]: 50-100 fold; serum cytokine levels (IL-1β, IL-6, TNF-α, IFN-γ, IL-12) by ELISA [2]: reduced these cytokine levels to levels in normal control mice; LPS- or IL-1β-increased IFN-β luciferase activity ([3]; FRTL-5, LPS 100 ng/ml or IL-1β 10 ng/ml, 0.5 mM C-10, 5 mM MMI, P<0.05 or better): inhibited the increase; poly (I:C)-increased IFN-β promoter activity (luciferase) ([3]; FRTL-5, Poly (I:C) 100 μg/ml, 6 hours, C10 0.5 mM, P<0.01): inhibited; reduction in LPS-increased TNF-α ([4]; 1 or 6 hours, real-time PCR): no reduction; decrease in LPS-increased IFN-β gene expression [4, 6]: 8 fold; decrease in LPS-induced IL-1β [4, 6]: 11 fold; decrease in LPS-increased IL-6 [4, 7]: 16 fold and > 16 fold; reduction in LPS-increased TNF-α [4, 7]: 4 fold; reduction in LPS-induced IL-12 p40 ([4]; 6 hours, real-time PCR vs DMSO control): 16 fold; recovery after operation to remove necrotic bowel [5]: full recovery in all cases
